Reference: patent US20250222100A1, “COMPLETE TOLEROGENIC ADJUVANT AND METHODS OF USING THE SAME” (THE BOARD OF TRUSTEES OF THE UNIVERSITY OF ILLINOIS, priority 2024, published 2025)
Structures can show the parent of a compound that is named as a salt.

What was measured:
[1] = system: antigen-reactive Treg and Teff cells; assay: Ki67 assay of antigen-reactive T cells in AFK mice; format: in vivo, AFK mice (C57BL/6 Apoe-/- Foxp3-eGFP Ki67-tagRFP); details: FTY720 after 8206
Protocol: Preparation and Injection of Composition 8206. Composition 8206 was prepared in the same steps as described for 8203 (Example 1), except that R848 was used in place of MPLA. It was injected subcutaneously at the back flank in 50 μl of PBS. PBS containing DMSO (as “PBS”), which was the initial solvent for rapamycin and R848, was used as a control.
Ki67-TagRFP-Based In Vitro Proliferation Assay for T Cells (“Ki67 Assay”). Total cells were isolated from lymphoid organs, washed twice in RPMI 1640/10% FCS, and counted by flow cytometry as described in Example 1. A portion of the isolated cells was cultured at 1×10^6 cells/well in a 96-well U-bottom plate. The wells were filled with 200 μl of RPMI 1640/10% FCS supplemented with 2-mercaptoethanol (50 μM), murine IL-2 (20 ng/ml), MPLA (100 ng/ml), sodium pyruvate (1 mM), and a peptide antigen (3 μg/ml) or DMSO (as a solvent control for the antigen). After 5 days, the cells were analyzed by flow cytometry with a BD FACS Melody. Proliferating Treg and Teff cells were identified as CD4+Foxp-eGFP+Ki67-TagRFP+CD62L1o and CD4+Foxp-eGFP Ki 67-TagRFP+CD62L10 populations, respectively; the cells were counted by the method of Schlenke ((1998) Cytometry 33:310-317). […] The difference was expressed as count/organ by multiplying the total number of cells in an organ divided by the portion used in the assay. […]

[2] = system: KJ1-26+ Treg and Teff cells in DLN, NLNs and spleen; assay: Inhibition of T cell egress with FTY720 in the model; format: in vivo, BALB/c Foxp3-eGFP mice; details: FTY720 with OVA-in-8203
Protocol: Inhibition of T Cell Egress with FTY720. FTY720 was dissolved in DMSO at 20 μg/μl. On day 5 in the model, 1 μl of FTY720 was mixed with one dose of OVA-in-8203, and the mixture was injected into the primed footpad. As a control, 1 μl of DMSO was used in place of FTY720, and the mixture was injected into a control group. On days 6 and 7, the mice were given additional injections (i.p.) of FTY720 (or DMSO) at 1 μl (diluted in 100 μl PBS)/mouse/day. On day 8, KJ1-26^+ Treg and Teff cells in the DLN, NLNs, and the spleen were counted, as described earlier.

[3] = system: monocyte-derived macrophages in DLN, NLN and spleen; assay: Systemic MMφ influx into draining and non-draining lymph nodes (R848, 8206); format: in vivo, C56BL/6 mice
Protocol: FIGS. 9A-9B show the effect of R848 on draining lymph node (DLN) versus non-draining lymph node (NLN). (FIG. 9A) C56BL/6 mice (10-week-old) were injected at the right-footpad with 20 μl of PBS containing DMSO (control), 3 μg of MPLA, or an equal molar amount (0.6 μg) of R848. At 24 hours, monocyte-derived macrophages (MM) in both the DLN and the NLN were counted by flow cytometry. Data are mean±SD of four experiments (on a log scale). * p≤0.001 (one-way ANOVA). (FIG. 9B) Dose-response analysis of R848. C56BL/6 mice (10-week-old) were injected subcutaneously at the back flank with 50 μl of PBS containing 8 μg of dexamethasone, 20 μg of rapamycin, and an indicated dose of R848. At 24 h, MMφ in popliteal lymph nodes were counted. Shown is a nonlinearly fitted substrate inhibition curve for mean±SD of 4-8 LNs. * p≤0.01 (one-way ANOVA).
C56BL/6 mice (10-week-old) were injected subcutaneously at the back flank with 8206 or PBS. At 24 hours, MMO in popliteal (PLN), axillary (ALN), mesenteric (MLN), and caudal mediastinal (CLN) lymph nodes and the spleen (SP) were counted. Data are mean±SD of four experiments (on a log scale). *p≤0.01 (t-test).
Preparation and Injection of Composition 8206. Composition 8206 was prepared in the same steps as described for 8203 (Example 1), except that R848 was used in place of MPLA. It was injected subcutaneously at the back flank in 50 μl of PBS. […]

[4] = system: KJ1-26+ Treg and Teff cells; assay: Mouse model testing tolerogenic adjuvants (the model): KJ1-26+ T cell counts and proliferation; format: in vivo, BALB/c Foxp3-eGFP mice; details: OVA with indicated components once every 3 days
Protocol: Mouse Model Testing Tolerogenic Adjuvants (“the Model”). The model was generated as follows: On day 0, whole blood was collected with heparin as the anticoagulant from a DO11.10 Foxp3-eGFP mouse. The blood was diluted 1:50 in PBS and transfused intravenously (i.v.) into sex-matched syngeneic BALB/c Foxp3-eGFP mice at ˜100 μl (containing ˜4,000 CD4+KJ1-26^+ cells) per mouse. On day 1, the recipients were injected at a footpad with 100 μg of OVA in 20 μl of PBS (see “Footpad Injection”) and let rest. On day 5, they were used as the model.
Determination of CD4^+ T cell Counts in the Model. A cell suspension was prepared from the DLN, NLNs, or the spleen as described herein. For counting CD4^+ T cells in the DLN, a portion of the DLN cell suspension was stained with PE/Cy7 anti-CD3 and APC anti-CD4 and analyzed by flow cytometry. The total CD4^+ T cell count (CD3+CD4+) in the suspension was determined by the method of Schlenke et al. ((1998) Cytometry 33:310-317). […] Cells were analyzed by flow cytometry. The total counts in the suspension for KJ1-26^+ Treg, KJ1-26^+ Teff, host Treg, and host Teff cells were calculated as portions of the total CD4^+ T cell count. The count in percent for Treg cells (“% Treg”) was calculated as % of the total Treg and Teff counts combined. […]

[5] = system: MMφs, DCs, Treg cells and Teff cells in draining lymph node; assay: Adjuvant-induced potentiation in lymphoid organs after footpad injection; format: in vivo, mouse; details: one day
Protocol: Footpad Injection. “A footpad” means the footpad of the right hind leg. Adjuvant components, antigens, or their combinations were injected subcutaneously (s.c.) between the 3rd and 4th toes in a volume of ˜20 μl in phosphate-buffered saline (PBS) with a BD insulin syringe.
Dose-Response Analysis. For dose-response analysis of MPLA, the reagent was serially diluted in DMSO; 5 μl of the diluted reagent were mixed with 100 μl of PBS and the resulting mixture was injected at 20 μl/footpad. For dose 0, 5 μl of DMSO were mixed with 100 μl of PBS and the resulting mixture was injected. Dose-response analysis of rapamycin was performed similarly, except that PBS containing 3 μg of MPLA was used in place of PBS.
Analysis of Adjuvant-Induced Potentiation in Lymphoid Organs. […] Cells were analyzed by flow cytometry. […] The total counts of MMos (CD11^loCD40^lo) (Zheng et al. (2013) Eur. J. Immunol. 43:219-227) and DCs (all the CD11+CD40^+ cells after excluding the CD11^loCD40^lo cells) (Zheng et al. (2013) Eur. J. Immunol. 43:219-227) in the cell suspension were determined by the method of Schlenke et al. ((1998) Cytometry 33:310-317). The MMφ count in percent was calculated as % of the total MMO and DC counts combined. […]

CCCCCCCCc1ccc(CCC(N)(CO)CO)cc1 [FTY720, fingolimod HCl]
accumulation of P210m-reactive Treg cells in spleen with egress blocker [1]: could be inhibited
gain of KJ1-26+ Treg counts in NLNs and spleen [2]: could be blocked

CCOCc1nc2c(N)nc3ccccc3c2n1CC(C)(C)O [R848, resiquimod]
optimal dose for systemic MMφ effect ([3]; combined with 8 μg dexamethasone and 20 μg rapamycin, s.c. back flank): about 6 μg

monophosphoryl lipid A [MPLA]
role of component in prolonging Treg cell expansion / shortening Teff cell expansion in DLN [4]: not required here for either effect
influx of MMφs, Teff cells, DCs and Treg cells to the DLN ([5]; injected alone into a footpad, BALB/c mouse): induced an influx of MMφs and Teff cells preferentially over that of DCs and Treg cells
abundance and absolute number of MMφs in the DLN ([5]; single footpad injection, BALB/c): attract MMS
attraction of MMφs to non-draining lymph nodes ([3]; footpad, 24 hours): could not
